Experimental data taken from ChEMBL document CHEMBL1142908, “Selective L-nitroargininylaminopyrrolidine and L-nitroargininylaminopiperidine neuronal nitric oxide synthase inhibitors” (Bioorg Med Chem, 2007).
Residues, ends and D or L forms follow the SMILES beside them.

Assays:
[1] = Selectivity of rat recombinant nNOS over bovine recombinant eNOS
[2] = Selectivity of rat recombinant nNOS over mouse recombinant iNOS
[3] = biological target: T1, Nitric oxide synthase, inducible (Mus musculus, UniProt P29477); assay: Inhibition of mouse recombinant iNOS expressed in Escherichia coli assessed as nitric oxide production by hemoglobin capture assay
T1 sequence (P29477 whole entry): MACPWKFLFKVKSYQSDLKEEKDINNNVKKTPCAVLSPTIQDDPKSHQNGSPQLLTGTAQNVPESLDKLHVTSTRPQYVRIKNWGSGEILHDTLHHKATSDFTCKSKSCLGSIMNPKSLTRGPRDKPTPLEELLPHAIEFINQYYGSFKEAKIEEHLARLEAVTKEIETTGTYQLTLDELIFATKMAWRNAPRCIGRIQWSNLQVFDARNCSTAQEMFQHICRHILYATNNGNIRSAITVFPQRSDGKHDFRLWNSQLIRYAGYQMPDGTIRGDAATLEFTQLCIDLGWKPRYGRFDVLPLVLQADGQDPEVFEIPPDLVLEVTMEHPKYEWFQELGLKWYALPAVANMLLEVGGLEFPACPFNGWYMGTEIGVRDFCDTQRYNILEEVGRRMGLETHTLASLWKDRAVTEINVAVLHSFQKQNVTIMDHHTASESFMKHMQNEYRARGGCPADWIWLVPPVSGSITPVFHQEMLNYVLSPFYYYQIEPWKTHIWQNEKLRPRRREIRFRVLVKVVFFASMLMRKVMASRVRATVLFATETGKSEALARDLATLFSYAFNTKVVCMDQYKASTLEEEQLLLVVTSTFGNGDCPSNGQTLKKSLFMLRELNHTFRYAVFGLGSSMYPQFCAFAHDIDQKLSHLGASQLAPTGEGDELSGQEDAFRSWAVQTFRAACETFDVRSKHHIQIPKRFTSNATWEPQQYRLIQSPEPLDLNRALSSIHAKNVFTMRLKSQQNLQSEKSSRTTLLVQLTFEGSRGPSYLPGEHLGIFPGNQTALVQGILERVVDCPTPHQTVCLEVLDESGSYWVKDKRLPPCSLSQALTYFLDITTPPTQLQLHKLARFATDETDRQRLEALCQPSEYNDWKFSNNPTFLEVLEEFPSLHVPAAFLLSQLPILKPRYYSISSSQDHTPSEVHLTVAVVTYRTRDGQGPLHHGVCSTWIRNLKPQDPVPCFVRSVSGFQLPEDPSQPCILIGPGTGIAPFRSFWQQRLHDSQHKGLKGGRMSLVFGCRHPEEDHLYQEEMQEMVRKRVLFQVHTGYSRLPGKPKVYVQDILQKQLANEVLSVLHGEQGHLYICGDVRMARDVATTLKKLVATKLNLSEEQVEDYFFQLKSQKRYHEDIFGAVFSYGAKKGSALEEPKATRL

Nitric oxide synthase 1 = Nitric oxide synthase 1 (Rattus norvegicus, UniProt P29476); assay: Inhibition of rat recombinant nNOS expressed in Escherichia coli assessed as nitric oxide production by hemoglobin capture assay
Chain of Nitric oxide synthase 1 (P29476 whole entry): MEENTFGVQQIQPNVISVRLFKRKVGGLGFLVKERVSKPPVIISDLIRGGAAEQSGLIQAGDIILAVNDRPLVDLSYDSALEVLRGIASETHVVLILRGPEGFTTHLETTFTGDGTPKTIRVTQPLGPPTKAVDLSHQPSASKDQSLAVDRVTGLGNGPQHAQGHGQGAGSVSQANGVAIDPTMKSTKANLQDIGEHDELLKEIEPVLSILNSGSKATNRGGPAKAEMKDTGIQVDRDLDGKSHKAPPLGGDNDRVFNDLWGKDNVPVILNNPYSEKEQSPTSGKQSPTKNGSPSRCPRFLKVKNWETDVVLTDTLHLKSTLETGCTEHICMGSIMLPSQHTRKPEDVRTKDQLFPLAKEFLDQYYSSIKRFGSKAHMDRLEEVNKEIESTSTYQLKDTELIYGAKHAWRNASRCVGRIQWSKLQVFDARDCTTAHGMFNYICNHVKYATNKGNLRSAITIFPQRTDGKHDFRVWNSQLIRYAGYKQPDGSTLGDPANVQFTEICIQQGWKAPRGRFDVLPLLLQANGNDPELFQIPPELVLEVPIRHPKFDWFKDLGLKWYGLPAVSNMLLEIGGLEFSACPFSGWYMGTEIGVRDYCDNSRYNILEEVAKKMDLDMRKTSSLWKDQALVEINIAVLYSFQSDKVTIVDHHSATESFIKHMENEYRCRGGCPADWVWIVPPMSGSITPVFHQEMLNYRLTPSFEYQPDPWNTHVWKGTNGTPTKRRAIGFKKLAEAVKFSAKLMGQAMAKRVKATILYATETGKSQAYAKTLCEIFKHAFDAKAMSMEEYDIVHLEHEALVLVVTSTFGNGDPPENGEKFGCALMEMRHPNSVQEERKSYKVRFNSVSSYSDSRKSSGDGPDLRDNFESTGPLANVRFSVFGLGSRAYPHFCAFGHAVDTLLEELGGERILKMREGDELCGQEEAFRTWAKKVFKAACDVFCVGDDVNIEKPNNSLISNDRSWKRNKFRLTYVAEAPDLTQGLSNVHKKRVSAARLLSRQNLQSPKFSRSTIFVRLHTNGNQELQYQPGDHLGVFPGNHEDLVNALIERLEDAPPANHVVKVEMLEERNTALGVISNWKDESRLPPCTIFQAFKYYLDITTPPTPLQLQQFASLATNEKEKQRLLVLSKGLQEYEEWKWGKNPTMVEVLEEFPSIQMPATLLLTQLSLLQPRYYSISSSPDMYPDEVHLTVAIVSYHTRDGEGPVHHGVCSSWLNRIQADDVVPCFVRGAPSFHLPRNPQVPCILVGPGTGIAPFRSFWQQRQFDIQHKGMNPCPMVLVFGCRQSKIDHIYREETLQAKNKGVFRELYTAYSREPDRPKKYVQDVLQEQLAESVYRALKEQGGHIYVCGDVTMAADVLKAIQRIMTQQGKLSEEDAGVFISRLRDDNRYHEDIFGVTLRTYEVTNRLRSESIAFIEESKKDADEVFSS

Nitric oxide synthase 3 = biological target: T2, Nitric oxide synthase 3 (Bos taurus, UniProt P29473); assay: Inhibition of bovine recombinant eNOS expressed in Escherichia coli assessed as nitric oxide production by hemoglobin capture assay
T2 sequence (P29473 whole entry): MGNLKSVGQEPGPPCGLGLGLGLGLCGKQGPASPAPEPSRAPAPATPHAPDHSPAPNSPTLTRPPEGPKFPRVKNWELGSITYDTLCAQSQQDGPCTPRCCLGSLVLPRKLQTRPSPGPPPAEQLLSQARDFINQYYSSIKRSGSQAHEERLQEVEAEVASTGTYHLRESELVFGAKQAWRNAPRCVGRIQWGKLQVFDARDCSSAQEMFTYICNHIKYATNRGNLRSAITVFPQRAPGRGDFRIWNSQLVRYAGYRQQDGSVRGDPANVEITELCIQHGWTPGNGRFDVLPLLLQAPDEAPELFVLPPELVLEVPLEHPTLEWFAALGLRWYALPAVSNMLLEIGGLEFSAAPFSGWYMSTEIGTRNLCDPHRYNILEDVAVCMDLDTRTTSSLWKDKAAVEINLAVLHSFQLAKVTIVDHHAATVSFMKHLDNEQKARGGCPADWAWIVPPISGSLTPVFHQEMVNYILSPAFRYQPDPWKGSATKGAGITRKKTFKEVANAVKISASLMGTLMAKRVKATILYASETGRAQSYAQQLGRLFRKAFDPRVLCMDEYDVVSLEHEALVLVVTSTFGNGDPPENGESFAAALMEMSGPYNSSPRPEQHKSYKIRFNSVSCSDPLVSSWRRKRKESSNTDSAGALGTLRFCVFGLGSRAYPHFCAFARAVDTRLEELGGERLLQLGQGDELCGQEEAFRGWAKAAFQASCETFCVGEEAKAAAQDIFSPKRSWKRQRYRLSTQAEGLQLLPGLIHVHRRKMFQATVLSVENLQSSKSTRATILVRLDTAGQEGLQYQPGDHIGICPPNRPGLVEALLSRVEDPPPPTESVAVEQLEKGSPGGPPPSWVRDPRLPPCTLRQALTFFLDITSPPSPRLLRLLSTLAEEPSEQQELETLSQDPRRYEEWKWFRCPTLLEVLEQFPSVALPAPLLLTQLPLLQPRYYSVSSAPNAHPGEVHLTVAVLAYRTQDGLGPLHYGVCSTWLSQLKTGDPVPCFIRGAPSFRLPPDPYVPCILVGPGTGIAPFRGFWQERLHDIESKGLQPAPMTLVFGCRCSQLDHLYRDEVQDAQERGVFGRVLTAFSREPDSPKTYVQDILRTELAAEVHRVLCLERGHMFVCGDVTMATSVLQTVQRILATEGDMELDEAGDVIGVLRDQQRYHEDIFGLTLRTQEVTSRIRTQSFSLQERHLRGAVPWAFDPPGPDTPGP

Compound	Ratio Ki [1]	Ratio Ki [2]	Ki [3]	Ki (Nitric oxide synthase 1)	Ki (Nitric oxide synthase 3)
N=C(NCCC[C@H](N)C(=O)N[C@@H]1CCCNC1)N[N+](=O)[O-]	469	188	–	–	–
CN[C@@H](CCCNC(=N)N[N+](=O)[O-])C(=O)N[C@@H]1CCNC1	148	115	–	–	–
CN[C@@H](CCCNC(=N)N[N+](=O)[O-])C(=O)N[C@H]1CN[C@H](C(N)=O)C1	266	60	65 µM	1090 nM	290 µM
N=C(NCCC[C@H](N)C(=O)N[C@H]1CCCNC1)N[N+](=O)[O-]	29	70	535 µM	7620 nM	221 µM
CN[C@@H](CCCNC(N)=N[N+](=O)[O-])C(=O)N[C@@H]1CCCNC1	–	–	242 µM	2260 nM	174 µM
NC(=O)[C@@H]1C[C@@H](NC(=O)[C@@H](N)CCC/N=C(\N)N[N+](=O)[O-])CN1	–	–	17 µM	330 nM	–
NC(=N[N+](=O)[O-])NCCC[C@H](N)C(=O)N[C@H]1CCNC1	–	–	57 µM	1760 nM	77 µM
N=C(NCCC[C@H](N)C(=O)N[C@@H]1CCNC1)N[N+](=O)[O-]	309	250	–	–	–
CN[C@@H](CCCNC(=N)N[N+](=O)[O-])C(=O)N[C@@H]1CCCNC1	77	107	–	–	–
NC(=N[N+](=O)[O-])NCCC[C@H](N)C(=O)N[C@@H]1CCCNC1	–	–	90 µM	480 nM	225 µM
N=C(NCCC[C@H](N)C(=O)N[C@H]1CCNC1)N[N+](=O)[O-]	44	32	–	–	–
CN[C@@H](CCCNC(=N)N[N+](=O)[O-])C(=O)NC1CCNCC1	48	216	–	–	–
C[C@H](NC(=O)[C@H](CC(N)=O)NC(=O)[C@@H](N)CC(N)=O)C(=O)O (H-Asn-Asn-Ala-OH)	1.2	7	4.28 µM	610 nM	0.72 µM
N=C(NCCC[C@H](N)C(=O)NC1CCNCC1)N[N+](=O)[O-]	557	430	202 µM	470 nM	262 µM
NC(=N[N+](=O)[O-])NCCC[C@H](N)C(=O)N[C@@H]1CCNC1	–	–	55 µM	220 nM	68 µM
CN[C@@H](CCCNC(N)=N[N+](=O)[O-])C(=O)NC1CCNCC1	–	–	515 µM	2380 nM	114 µM
CN[C@@H](CCCNC(N)=N[N+](=O)[O-])C(=O)N[C@@H]1CCNC1	–	–	124 µM	1080 nM	160 µM
